For experiment [1], the target named is T1, hTRPV1 (Homo sapiens (Human), UniProt Q8NER1). Kind of experiment: Ca2+ uptake assay, capsaicin antagonism (CHO-hTRPV1 cells). In kind it is cell-based. The note with it: for Ki: capsaicin (30 nM) stimulated Ca2+ uptake; for inhibition at 30 µM / % inhibition at 30 μM (capsaicin antagonism): compound at 30 μM, capsaicin 30 nM. As to the method: (§1) Tet-On induced CHO-hTRPV1 cells were cultured in maintaining medium (F12 supplemented with 10% TET-free FBS [Atlanta Biologicals, GA], 25 mM HEPES, 10 μg/ml blasticidin and 250 μg/ml geneticin (all from Invitrogen Life Sciences; Grand Island, N.Y.). TRPV1 protein was induced with induction medium (F12 supplemented with 10% FBS, 25 mM HEPES, and 1 μg/ml tetracycline) as described below for ligand binding and Ca uptake measurements.
T1 sequence (Q8NER1 whole entry): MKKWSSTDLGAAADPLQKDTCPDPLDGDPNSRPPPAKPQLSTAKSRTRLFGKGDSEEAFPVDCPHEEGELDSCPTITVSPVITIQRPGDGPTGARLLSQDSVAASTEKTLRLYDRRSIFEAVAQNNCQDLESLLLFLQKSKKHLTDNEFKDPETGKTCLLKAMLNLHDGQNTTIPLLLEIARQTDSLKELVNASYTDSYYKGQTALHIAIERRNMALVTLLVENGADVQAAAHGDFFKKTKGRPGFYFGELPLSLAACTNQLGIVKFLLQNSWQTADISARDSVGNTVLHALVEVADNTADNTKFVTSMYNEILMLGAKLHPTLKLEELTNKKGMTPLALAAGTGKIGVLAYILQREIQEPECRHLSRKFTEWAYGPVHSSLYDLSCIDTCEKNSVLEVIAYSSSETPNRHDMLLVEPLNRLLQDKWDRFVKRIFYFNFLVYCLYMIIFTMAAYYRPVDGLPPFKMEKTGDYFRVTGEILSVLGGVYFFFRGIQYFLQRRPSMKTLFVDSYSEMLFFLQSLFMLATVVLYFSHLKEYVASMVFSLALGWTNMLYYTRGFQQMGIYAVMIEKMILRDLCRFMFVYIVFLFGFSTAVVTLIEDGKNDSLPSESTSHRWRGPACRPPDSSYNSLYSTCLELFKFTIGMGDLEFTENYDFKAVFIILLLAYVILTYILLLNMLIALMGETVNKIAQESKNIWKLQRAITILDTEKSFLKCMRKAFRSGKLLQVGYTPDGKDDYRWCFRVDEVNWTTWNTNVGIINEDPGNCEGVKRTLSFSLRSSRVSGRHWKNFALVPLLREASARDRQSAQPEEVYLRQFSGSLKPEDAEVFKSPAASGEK
(§2) CHO-hTRPV1 cells were plated in 24-well plates, reaching 40 to 60% confluence in maintaining medium after 24 hours. The cells were washed once with Dulbecco's phosphate buffered saline (DPBS; Invitrogen, Grand Island, N.Y.) to remove antibiotics, and fresh medium with tetracycline (inducing medium) was added to induce TRPV1 expression. Experiments were done approximately 24 hours after induction. The cells were at least 90% confluent at the time of the assays.
(§3) For agonist Ca^2+ uptake assays, the inducing medium was aspirated and replaced by DMEM (supplemented with bovine serum albumin (0.25 mg/mL), […], and 100 μl of increasing concentrations of the non-radioactive ligand for a total volume of 400 μl/well. The cells were incubated for 5 min in a water bath at 37° C. For uptake measurements by a full agonist, a saturating concentration of capsaicin (3000 nM) was used as a positive control. Immediately after incubation, the assay medium was aspirated and the cells were washed twice with ice cold DPBS (no Ca^2+ & Mg^2+).The cells were then lysed in radioimmunoprecipitation assay buffer (50 mM Tris-Cl pH 7.5, 150 mM NaCl, 1% Triton X-100, 1% SDS, and 1% sodium deoxycholate; 400 μL/well) for at least 40 min on a shaker. Aliquots (300 μL) of the cell lysates were counted in a liquid scintillation counter. Background uptake was determined in the absence of either compound or capsaicin. For the antagonism assays, capsaicin (30 nM) was included along with increasing concentrations of the ligand being evaluated. The cells were incubated for 5 min in a water bath at 37° C. Immediately after incubation, the assay medium was aspirated and the cells were washed twice with ice-cold DPBS (no Ca^2+ & Mg^2+). The cells were then lysed in radioimmunoprecipitation assay buffer for at least 40 min on a shaker. Aliquots of the cell lysate were counted in a liquid scintillation counter. Triplicate points at each concentration of ligand were determined in each experiment. Compounds were initially screened at a concentration of 30 µM. Compounds showing greater than 10% agonism/antagonism were evaluated in triplicate experiments. As indicated, full dose response curves for compounds showing activity were performed at least three times. Data was analyzed using GraphPad Prism.

In experiment [2] the target is cannabinoid receptor 2 (CB2) (Homo sapiens (Human), UniProt P34972). Kind of experiment: Binding at the cannabinoid receptor 2 (CB2).
cannabinoid receptor 2 (CB2), sequence (P34972 whole entry, species assumed): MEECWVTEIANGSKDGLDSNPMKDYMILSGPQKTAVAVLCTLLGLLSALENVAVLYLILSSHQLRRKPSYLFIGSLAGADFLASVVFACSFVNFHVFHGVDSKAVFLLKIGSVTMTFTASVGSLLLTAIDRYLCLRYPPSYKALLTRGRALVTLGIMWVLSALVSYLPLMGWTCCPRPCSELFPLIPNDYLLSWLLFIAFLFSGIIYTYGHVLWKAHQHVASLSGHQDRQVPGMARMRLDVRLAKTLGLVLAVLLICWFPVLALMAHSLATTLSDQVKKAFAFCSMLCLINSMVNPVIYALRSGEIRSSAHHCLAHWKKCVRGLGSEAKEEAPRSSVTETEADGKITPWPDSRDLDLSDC
For experiment [3], the target named is T1, hTRPV1. Kind of experiment: [3H]RTX competition binding assay (membranes of induced CHO-hTRPV1 cells). The note with it: approximately 2 nM [3H]RTX, 37° C., 60 minutes; read-out: Ki for inhibition of [3H]RTX binding to hTRPV1. As to the method:
as §1
Binding studies with [^3H]RTX were carried out as follows. The binding assay mixtures were prepared in 1.5 ml centrifuge tubes and consisted of a fixed concentration (approximately 2 nM) of [^3H]RTX (37 Ci/mmol specific activity, PerkinElmer Life Sciences), various concentrations of competing ligands, and […] of membranes from induced CHO-hTRPV1 expressing cells (approximately 1-3×10^6 cells) in Dulbecco's phosphate buffered saline (DPBS, with Ca^2+ & Mg^2+) for a total volume of 350 μl. The assay mix contained bovine serum albumin at a final concentration of 0.25 mg/ml (Cohn fraction V; Sigma-Aldrich, St. Louis, Mo.). In each set of experiments, nonspecific binding were determined in the presence of 200 nM non-radioactive RTX. The binding reaction was initiated by placing the assay mixture in a 37° C. shaking water bath for 60 minutes ([…]). The assay mixture was then chilled on ice for 2-3 min before adding 100 μl of α1-acid glycoprotein (2 mg/ml; Sigma-Aldrich) and mixed thoroughly. The tubes were kept on ice for an additional 10 min. The bound and free ligands were then separated by centrifugation (12,200 rpm for 15 minutes) in a Beckman Coulter centrifuge Allegra 21R. 200 μl of supernatant was collected for determination of free ligand. The remainder was removed by aspiration. The bottom portion of the tubes containing the membranes was cut off and bound radioactivity determined. Radioactivity was measured by scintillation counting. Data were analyzed using GraphPad Prism. Ki values for compounds were determined by competition for binding of [^3H]RTX to the hTRPV1 and represent the mean SEM of triplicate binding curves. […]

The target of experiment [4] is T1, hTRPV1. Kind of experiment: Agonist Ca2+ uptake assay (CHO-hTRPV1 cells). The format is cell-based. Here is the method:
as §1, §2
as §3, with “The cells were incubated for 5 min in a water bath at 37° C. Immediately after incubation, the assay medium was aspirated and the cells were washed twice with ice-cold DPBS (no Ca^2+ & Mg^2+). The cells were then lysed in radioimmunoprecipitation assay buffer for at least 40 min on a shaker.” left out, “Triplicate points at each concentration of ligand were determined in each experiment. Compounds were initially screened at a concentration of 30 µM. Compounds showing greater than 10% agonism/antagonism were evaluated in triplicate experiments. As indicated, full dose response curves for compounds showing activity were performed at least three times.” left out

Where “and” joins values, the source holds several entries; their conditions need not be identical. Identical values can stand only once.

`Cc1c(Cl)cccc1NC(=O)Nc1cccc(O)c1` [Compound 16]: the Ki – broadly, the equilibrium dissociation constant of an inhibitor or competing ligand from its target – came to 0.56 ± 0.16 µM on hTRPV1 [1] and 12.2 µM in experiment [2]. In addition, at 30 µM the inhibition on hTRPV1 [1] was 100%.
In the case of `CCN(CC)c1ccc(CNS(=O)(=O)c2ccc(NC(C)=O)cc2)cc1` [XIE1-203Y, N-(4-(N-(4-(diethylamino)benzyl)sulfamoyl)phenyl)acetamide], testing at 30 µM against hTRPV1 [1] gave an inhibition of 12.7 ± 1%.
For the compound `Cc1c(Cl)cccc1NC(=O)Nc1cccc2c(O)cccc12` [Compound 15], at hTRPV1 [1], the Ki stood at 0.49 ± 0.14 µM and the inhibition (usually the percentage by which the read-out fell short of the control) at 30 µM is 99.6%. Also, in experiment [2], the Ki amounted to 1.39 µM.
With `O=C(Nc1cc(C(F)(F)F)ccc1Cl)c1ccccc1F` [Compound 18], on hTRPV1 [1], affinity was put at a Ki of 7 ± 2 µM and the inhibition at 30 µM is 51.8%.
On to `O=C(Nc1cccc(C(F)(F)F)c1)Nc1ccc([N+](=O)[O-])cc1Cl` [Compound 1], for which, at hTRPV1 [1], the % inhibition (usually the drop in the measured response relative to a control, in per cent) at 30 μM (capsaicin antagonism) is reported as 92.2 ± 2.7% and testing at 30 µM gave an inhibition of 98.2 ± 2.7%. In addition, the Ki on hTRPV1 [3] was found to be 1.11 ± 0.21 µM.
For `CSc1ccc(NC(=O)Nc2ccc(Cl)cc2[N+](=O)[O-])cc1` [Compound 11], on hTRPV1 [1], the affinity corresponds to a Ki of 3.7 ± 1.7 µM and the “% inhibition at 30 μM (capsaicin antagonism)” value (from here on “% inhibition at 30 μM”) turned out to be 61 ± 18%.
For `Cc1cc([N+](=O)[O-])ccc1NC(=O)Nc1cccc(F)c1` [Compound 2], the Ki on hTRPV1 [1] is 4.5 µM and 4.52 µM; on hTRPV1 [1] (listed as compound 2), 4.5 ± 0.88 µM; on hTRPV1 [3], 5.2 ± 0.32 µM. Also, on hTRPV1 [1], the inhibition at 30 µM is 79.9 ± 4.9%.
For `Cc1cc(O)c(C(C)C)cc1NC(=O)Nc1ccc(Br)cc1` [Compound 9], the inhibition at 30 µM against hTRPV1 [1] came out at 27 ± 14%.
Consider `CCOC(=O)c1ccc(NC(=O)Nc2cccc(Cl)c2)cc1` [Compound 4], for which, at hTRPV1 [1], the Ki amounted to 11.7 ± 1.3 µM and 30 µM produced 64.5% inhibition.
As to `NC(=O)c1ccccc1NC(=O)Nc1ccc(F)cc1` [Compound 3], at 30 µM the inhibition at hTRPV1 [1] was 32 ± 8%.
Compound `COc1ccc(Cl)cc1NC(=O)Nc1ccc(CCO)cc1` [Compound 7] registered an inhibition at 30 µM against hTRPV1 [1] of 33 ± 7%.
On the same count and under the same terms, the same measure for `COc1ccc(C)cc1NC(=O)Nc1ccccc1F` [Compound 8]: 28 ± 6%.
With `O=C(Nc1ccc(F)c([N+](=O)[O-])c1)Nc1cccc2c(O)cccc12` [Compound 14], the values for the inhibitory constant (Ki) (at hTRPV1 [1]; in experiment [2]; at hTRPV1 [3]) were 0.47 ± 0.18 µM, 15.9 µM and 0.65 ± 0.26 µM, respectively. Besides, at hTRPV1 [1], the “% inhibition at 30 μM” value is on record as 100 ± 0%.
`CCOC(=O)c1ccc(NC(=O)Nc2ccc(F)cc2)cc1` [Compound 5]: the “functional character at hTRPV1” value at hTRPV1 [4] was “partial agonist”. Besides, the EC50 (usually the concentration at which the effect is half-maximal) on hTRPV1 [4] (Ca2+ uptake, CHO-hTRPV1 cells, read-out: EC50 for capsaicin agonism) was determined as 2.84 ± 0.21 µM. Moreover, the Emax at hTRPV1 [4] (relative to 3000 nM capsaicin, read-out: maximal stimulation, % of that by 3000 nM capsaicin (% agonism)) was determined as 55.7 ± 7.8%.
At hTRPV1 [1], `Cc1ccc(Cl)cc1NC(=O)Nc1cccc2c(O)cccc12` [Compound 13] showed a Ki of 3.7 ± 1 µM and an inhibition at 30 µM of 72%.
As to `O=C1C(=O)c2cc(Br)cc([N+](=O)[O-])c2-c2ccc(Br)cc21` [Compound 17], at hTRPV1 [1], the Ki is 2.15 ± 0.72 µM and the “% inhibition at 30 μM” value is recorded as 66 ± 11%.
`CCOC(=O)c1ccc(NC(=O)Nc2cc(Cl)ccc2C)cc1` [Compound 6] yielded an inhibition at 30 µM against hTRPV1 [1] of 34 ± 7%.

The values are drawn from patent US11339122B2, “hTRPV1 chemical agents” (UNIVERSITY OF PITTSBURGH—OF THE COMMONWEALTH SYSTEM OF …, priority 2015, dated 2022).
